Experiment in all cases: relative viability (nuclei count vs DMSO), 5 days (fraction); higher = more cells survive
Compound in assay [1]: C1=CC=C2C(=C1)N=C(S2)C(C#N)C3=NC(=NC=C3)NCCC4=CN=CC=C4 + C[C@@H](Oc1cc(-c2cnn(C3CCNCC3)c2)cnc1N)c1c(Cl)ccc(F)c1Cl [Crizotinib] (partner 1 µM)
The gist of the method: (§1)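 Lung cancer cell lines were pin-tool dosed in 1536-well plates on the day after seeding, with either a lone drug or a fixed anchor-drug dose plus five library-drug doses (not always all listed) in √10 steps. Nuclei were counted on 4× images after 5 days. Relative viability is the ratio of treated-well to vehicle-well nuclei counts, with each value a median of duplicate plates.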

Compound in the assay “Vandetanib + Pictilisib”: COc1cc2/c(=N/c3ccc(Br)cc3F)nc[nH]c2cc1OCC1CCN(C)CC1 [Vandetanib] + CS(=O)(=O)N1CCN(Cc2cc3nc(-c4cccc5[nH]ncc45)nc(N4CCOCC4)c3s2)CC1 [Pictilisib] (partner 1 µM)
The gist of the method:
as §1

Compound in the assay “CUDC-101 + Dasatinib”: C#Cc1cccc(Nc2ncnc3cc(OC)c(OCCCCCCC(=O)NO)cc23)c1 [CUDC-101] + Cc1nc(Nc2ncc(C(=O)Nc3c(C)cccc3Cl)s2)cc(N2CCN(CCO)CC2)n1 [Dasatinib] (partner 0.075 µM)
The gist of the method:
as §1

Compound in the assay “CUDC-101 + Linsitinib”: C#Cc1cccc(Nc2ncnc3cc(OC)c(OCCCCCCC(=O)NO)cc23)c1 [CUDC-101] + C[C@]1(O)C[C@@H](c2nc(-c3ccc4ccc(-c5ccccc5)nc4c3)c3c(N)nccn32)C1 [Linsitinib] (partner 1 µM)
The essentials: as §1

As for UMC-11, the relative viability in assay [1] (first compound 0.005 µM) was 0.487; in assay [1] (first compound 0.01581 µM) it was 0.561; in assay [1] (first compound 0.05 µM) it was 0.602; in assay [1] (first compound 0.1581 µM), 0.654; in assay [1] (first compound 0.5 µM), 0.5; with Vandetanib + Pictilisib (first compound 0.02 µM) it was 0.75. Moreover, the relative viability with Vandetanib + Pictilisib (first compound 0.06325 µM) was 0.78; with Vandetanib + Pictilisib (first compound 0.2 µM) it was 0.694; in the assay with Vandetanib + Pictilisib (first compound 0.6325 µM) it was 0.667; with Vandetanib + Pictilisib (first compound 2 µM) it was 0.857; with CUDC-101 + Dasatinib (first compound 0.01 µM), 0.436; with CUDC-101 + Dasatinib (first compound 0.03162 µM), 0.406. Besides, the relative viability in the assay with CUDC-101 + Dasatinib (first compound 0.1 µM) came to 0.35; in the assay with CUDC-101 + Dasatinib (first compound 0.3162 µM), 0.227; with CUDC-101 + Dasatinib (first compound 1 µM), 0.0988; in the assay with CUDC-101 + Linsitinib (first compound 0.01 µM) it was 1.07; with CUDC-101 + Linsitinib (first compound 0.03162 µM), 0.97; in the assay with CUDC-101 + Linsitinib (first compound 0.1 µM) it was 1.03. The relative viability in the assay with CUDC-101 + Linsitinib (first compound 0.3162 µM) was 0.864; with CUDC-101 + Linsitinib (first compound 1 µM) it was 0.208.

Values taken from the supplement of paper PMC10307832.
